Experimental data reported in patent US12622965B2, “Therapeutical tools and methods using temperature-sensitive receptors for treating blindness” (FRIEDRICH MIESCHER INSTITUTE FOR BIOMEDICAL RESEARCH, priority 2020, dated 2026).

Tests used:
[1] = test system: cone photoreceptors of the rd1 mouse; assay: AAV transduction of rd1 mouse cones after subretinal injection, quantified by immunofluorescence and confocal imaging; type: in vivo
Excerpt: The inventors targeted rTRPV1 to cone photoreceptors of the Pde6brd1 (known as rd1) mouse via subretinal injection of adeno-associated virus (AAV) and a photoreceptor-specific promoter (mCar) to restrict expression. Rd1 mice have severe photoreceptor degeneration with complete loss of rod and dysfunctional light-insensitive cone photoreceptors by four weeks of age postnatal (P28). 55±10% of rd1 cones expressed rTRPV1 in the cell membrane (n=12,813 cones mm−2, n=7042 TRPV1 positive cones mm−2, mean±s.d). 98±1.6% of rat TRPV1 positive cells were cones (n=7216 TRPV1 positive cells mm−2, n=7042 TRPV1 positive cones mm−2, mean±s.d).
Ocular injections to deliver AAVs expressing TRP variants and/or functionalized nanorods were performed on 4 week old mice anesthetized with 2.5% isoflurane. A small incision was made with a sharp 30 gauge needle at the nasal corneo-scleral junction and AAV and/or nanorods were co-injected through this incision into the subretinal space using a blunt 5 μL Hamilton syringe held in a micromanipulator. For cone photoreceptor activity monitoring, cone specific AAV-ProA7-GCaMP6s (11) was co-injected subretinally with rTRPV1 and/or nanorods. A maximum volume of 2.5 μL was administered per eye. For primary visual cortex activity monitoring, AAV-pCAG-FLEX2-tTA2 was delivered by intravenous retro-orbital injection as previously described by D. Hillier et al. Nat Neurosci 20, 960-968 (2017) 2 weeks after initial ocular injection of rTRPV1 and nanorods. […]
A Zeiss LSM 700 laser scanning confocal microscope was used to acquire images of antibody stained cells and tissues with an EC Plan-Neofluar 40×/1.30 oil M27 objective at up to 4 excitation laser lines according to secondary antibody specification. Expression was assessed from 1024×1024 pixel images in a z-stack with 0.75 μm steps. […] AAV transduction was quantified from retinal wholemounts. […] Quantification was performed separately for outer nuclear layer, inner nuclear layer and ganglion cell layer.

[2] = test system: rd1 cones; assay: two-photon calcium imaging of cone cell bodies and axon terminals in wholemount rd1 retinas; type: cell-based, mouse
Excerpt: To measure if NIR light drives responses in cones, the inventors performed two-photon calcium imaging of individual cone cell bodies and axon terminals in wholemount rd1 retinas in three conditions: first, rTRPV1 with 915 nm nanorods, second, rTRPV without nanorods and third, 915 nm nanorods without rTRPV1. To detect calcium signals, the inventors genetically targeted the calcium indicator GCaMP6s to cones via AAV that expresses GCaMP6s under a cone-specific promoter (ProA7). GCaMP6s was expressed in 67±5.1% of rd1 cones (n=12,813 cones mm−2, n=8635 GCaMP6s positive cones mm−2, mean±s.d).
Near-infrared (NIR) pulses were produced by two custom-made, single wavelength NIR diode lasers emitting at 915 nm or 980 nm, modelled after J. Yao, B. Liu, and F. Qin. […] Total laser power output, as a function of driving voltage, was measured by placing cannula (CFM14L20) and patch cable (M37L02) output at the entrance of an integrating sphere photodiode power sensor (Thorlabs, S142C) with a PM100D read-out unit. Oscilloscope read-out of laser response time was obtained by applying a step control voltage to the lasers. […]
For two-photon calcium imaging of mouse cone photoreceptors, wild-type and rd1 retinas were isolated in oxygenated Ringer's medium. […] Fluorescence was analyzed semi-online via custom-made software written in Python by Z. Raics (A. Drinnenberg et al. Neuron 99, 117-134 e111 (2018)). […]

[3] = AAV, mCar promoter, subretinal injection, mean±s.d

TRPV1.465-6x-His: rat TRPV1 channel with 6x-His epitope tag inserted in the first extracellular loop after amino acid 465; delivered by AAV
channel (TRPV1 or Ollas) positive cells that were cones [1, 3]: 98±1.6%
rd1 cones expressing the channel in the cell membrane [1, 3]: 55±10%
expression of the 6x-His tag in TRPV1 positive cones ([1]; rd1 mouse): All TRPV1 positive cones expressed the 6x-His tag
reaction of rTRPV1 expressing cones to light without nanorods [2]: did not react to light
